Measurements from the NIST ThermoML archive (doi:10.1021/je0499317).
Numbers after ± are expanded uncertainties.

Experiment: excess molar enthalpy (molar enthalpy of mixing); xn = mol fraction of the nth substance listed
Conditions: 298.15 K, 101.33 kPa, Liquid

CCCCCCCCCCC#N [1-decylcyanide] + CSCS(C)=O
Conditions	excess molar enthalpy [kcal/mol]
x2 = 0.02536	0.029 ± 0.000813
x2 = 0.04055	0.0463 ± 0.0011
x2 = 0.04193	0.0496 ± 0.00115
x2 = 0.07582	0.0856 ± 0.0017
x2 = 0.07724	0.0867 ± 0.00172
x2 = 0.1217	0.127 ± 0.00234
x2 = 0.1402	0.142 ± 0.00263
x2 = 0.1596	0.159 ± 0.00287
x2 = 0.1889	0.181 ± 0.00311
x2 = 0.2628	0.223 ± 0.00382
x2 = 0.2767	0.231 ± 0.00406
x2 = 0.3234	0.252 ± 0.0043
x2 = 0.4218	0.278 ± 0.00478
x2 = 0.5052	0.286 ± 0.00478
x2 = 0.77	0.237 ± 0.00406
x2 = 0.8316	0.202 ± 0.00359
x2 = 0.8694	0.17 ± 0.00311
x2 = 0.9043	0.138 ± 0.00263
x2 = 0.9095	0.132 ± 0.00239
x2 = 0.9464	0.0864 ± 0.00172
x2 = 0.9933	0.0131 ± 0.000574

CCCCCC#N [hexanenitrile] + CSCS(C)=O
Conditions	excess molar enthalpy [kcal/mol]
x2 = 0.01678	0.013 ± 0.000574
x2 = 0.02979	0.0247 ± 0.000765
x2 = 0.05841	0.0472 ± 0.0011
x2 = 0.07605	0.0589 ± 0.00129
x2 = 0.1435	0.103 ± 0.00198
x2 = 0.1944	0.13 ± 0.00239
x2 = 0.2184	0.141 ± 0.00263
x2 = 0.2608	0.158 ± 0.00287
x2 = 0.3826	0.188 ± 0.00335
x2 = 0.4382	0.193 ± 0.00335
x2 = 0.4785	0.194 ± 0.00335
x2 = 0.5751	0.187 ± 0.00335
x2 = 0.7307	0.15 ± 0.00263
x2 = 0.8373	0.107 ± 0.00203
x2 = 0.9177	0.0609 ± 0.00131
x2 = 0.9392	0.0468 ± 0.0011
x2 = 0.9784	0.0178 ± 0.000645

CCCCCCCCC#N [nonanenitrile] + C[S+](C)[O-]
Conditions	excess molar enthalpy [kcal/mol]
x2 = 0.05896	0.0512 ± 0.00117
x2 = 0.07322	0.0623 ± 0.00134
x2 = 0.09784	0.0826 ± 0.00165
x2 = 0.1285	0.107 ± 0.00203
x2 = 0.1721	0.141 ± 0.00263
x2 = 0.1898	0.153 ± 0.00263
x2 = 0.2365	0.183 ± 0.00311
x2 = 0.2408	0.187 ± 0.00335
x2 = 0.2698	0.204 ± 0.00359
x2 = 0.2836	0.211 ± 0.00359
x2 = 0.3841	0.252 ± 0.0043
x2 = 0.4577	0.272 ± 0.00454
x2 = 0.5425	0.285 ± 0.00478
x2 = 0.5442	0.285 ± 0.00478
x2 = 0.5569	0.285 ± 0.00478
x2 = 0.703	0.271 ± 0.00454
x2 = 0.7734	0.245 ± 0.00406
x2 = 0.8496	0.197 ± 0.00335
x2 = 0.8991	0.15 ± 0.00263
x2 = 0.939	0.103 ± 0.00196
x2 = 0.9712	0.0531 ± 0.0012
x2 = 0.9917	0.017 ± 0.000621

CCCCCCCCCCCC#N [n-dodecanenitrile] + C[S+](C)[O-]
Conditions	excess molar enthalpy [kcal/mol]
x2 = 0.02506	0.0231 ± 0.000741
x2 = 0.02612	0.0261 ± 0.000765
x2 = 0.07491	0.0764 ± 0.00155
x2 = 0.09988	0.104 ± 0.00198
x2 = 0.1665	0.168 ± 0.00287
x2 = 0.1791	0.185 ± 0.00335
x2 = 0.1948	0.194 ± 0.00335
x2 = 0.2522	0.243 ± 0.00406
x2 = 0.3366	0.293 ± 0.00502
x2 = 0.4308	0.327 ± 0.0055
x2 = 0.562	0.341 ± 0.00574
x2 = 0.7592	0.298 ± 0.00502
x2 = 0.8602	0.231 ± 0.00406
x2 = 0.8956	0.193 ± 0.00335
x2 = 0.9461	0.114 ± 0.00215
x2 = 0.9649	0.08 ± 0.0016
x2 = 0.9886	0.0287 ± 0.000813

CCCCCCCCCCC#N [1-decylcyanide] + C[S+](C)[O-]
Conditions	excess molar enthalpy [kcal/mol]
x2 = 0.02797	0.0287 ± 0.000813
x2 = 0.05445	0.0548 ± 0.00122
x2 = 0.09234	0.0936 ± 0.00182
x2 = 0.1207	0.119 ± 0.00222
x2 = 0.1811	0.175 ± 0.00311
x2 = 0.1853	0.178 ± 0.00311
x2 = 0.2855	0.249 ± 0.0043
x2 = 0.3924	0.296 ± 0.00502
x2 = 0.5139	0.322 ± 0.00526
x2 = 0.5302	0.322 ± 0.00526
x2 = 0.6423	0.322 ± 0.00526
x2 = 0.7161	0.308 ± 0.00502
x2 = 0.8292	0.254 ± 0.0043
x2 = 0.8917	0.195 ± 0.00335
x2 = 0.9298	0.145 ± 0.00263
x2 = 0.9772	0.0547 ± 0.00122
x2 = 0.98	0.0491 ± 0.00112
x2 = 0.9927	0.0191 ± 0.000669

CCCCCCCCCCCCCC#N [tetradecanenitrile] + CSCS(C)=O
Conditions	excess molar enthalpy [kcal/mol]
x2 = 0.03538	0.0412 ± 0.001
x2 = 0.05372	0.0689 ± 0.00143
x2 = 0.08438	0.103 ± 0.00196
x2 = 0.1289	0.153 ± 0.00263
x2 = 0.1565	0.177 ± 0.00311
x2 = 0.1984	0.21 ± 0.00359
x2 = 0.3348	0.281 ± 0.00478
x2 = 0.505	0.304 ± 0.00502
x2 = 0.6332	0.291 ± 0.00478
x2 = 0.6721	0.283 ± 0.00478
x2 = 0.8155	0.229 ± 0.00382
x2 = 0.8867	0.172 ± 0.00311
x2 = 0.9123	0.145 ± 0.00263
x2 = 0.9566	0.0871 ± 0.00172
x2 = 0.9858	0.0352 ± 0.000908

CCCCCCCCCCCCC#N [dodecanecarbonitrile] + C[S+](C)[O-]
Conditions	excess molar enthalpy [kcal/mol]
x2 = 0.02177	0.0197 ± 0.000669
x2 = 0.06754	0.0683 ± 0.00143
x2 = 0.09519	0.0952 ± 0.00184
x2 = 0.09988	0.104 ± 0.00198
x2 = 0.1229	0.124 ± 0.00229
x2 = 0.2202	0.211 ± 0.00359
x2 = 0.2575	0.237 ± 0.00406
x2 = 0.2709	0.244 ± 0.00406
x2 = 0.28	0.253 ± 0.0043
x2 = 0.4232	0.309 ± 0.00526
x2 = 0.5464	0.322 ± 0.00526
x2 = 0.6358	0.318 ± 0.00526
x2 = 0.7394	0.297 ± 0.00502
x2 = 0.7753	0.283 ± 0.00478
x2 = 0.8034	0.269 ± 0.00454
x2 = 0.8609	0.226 ± 0.00382
x2 = 0.9001	0.181 ± 0.00311
x2 = 0.9286	0.144 ± 0.00263
x2 = 0.9571	0.0958 ± 0.00186
x2 = 0.9821	0.0459 ± 0.00108

CCCCCCC#N [heptanenitrile] + C[S+](C)[O-]
Conditions	excess molar enthalpy [kcal/mol]
x2 = 0.02225	0.0157 ± 0.000621
x2 = 0.07063	0.0501 ± 0.00115
x2 = 0.08316	0.059 ± 0.00129
x2 = 0.119	0.0815 ± 0.00163
x2 = 0.1747	0.116 ± 0.00217
x2 = 0.1851	0.123 ± 0.00227
x2 = 0.2248	0.142 ± 0.00263
x2 = 0.2423	0.153 ± 0.00263
x2 = 0.3049	0.179 ± 0.00311
x2 = 0.3581	0.199 ± 0.00335
x2 = 0.3605	0.201 ± 0.00359
x2 = 0.4935	0.23 ± 0.00382
x2 = 0.5772	0.233 ± 0.00406
x2 = 0.6522	0.226 ± 0.00382
x2 = 0.7056	0.214 ± 0.00359
x2 = 0.8946	0.114 ± 0.00213
x2 = 0.9545	0.0549 ± 0.00122
x2 = 0.9792	0.0267 ± 0.000789

CCCCCCCC#N [octanenitrile] + C[S+](C)[O-]
Conditions	excess molar enthalpy [kcal/mol]
x2 = 0.02667	0.0195 ± 0.000669
x2 = 0.037	0.0293 ± 0.000813
x2 = 0.1176	0.0892 ± 0.00174
x2 = 0.18	0.134 ± 0.00239
x2 = 0.2399	0.169 ± 0.00311
x2 = 0.3293	0.213 ± 0.00359
x2 = 0.3877	0.233 ± 0.00406
x2 = 0.4654	0.251 ± 0.0043
x2 = 0.552	0.261 ± 0.0043
x2 = 0.6233	0.256 ± 0.0043
x2 = 0.7022	0.244 ± 0.00406
x2 = 0.8267	0.189 ± 0.00335
x2 = 0.8785	0.149 ± 0.00263
x2 = 0.9546	0.068 ± 0.00143
x2 = 0.9616	0.057 ± 0.00124
x2 = 0.992	0.0135 ± 0.000574
